Test results: patent publication US20090291968A1, “SUBSTITUTED INDAZOLE DERIVATIVES, THEIR MANUFACTURE AND USE AS PHARMACEUTICAL AGENTS” (priority 2006, published 2009)

Tests used:
[1] = tested on: HCT 116 cells; test: CellTiter-Glo assay in HCT 116 cells (cell viability); type: cell-based; conditions: 120 h; HCT 116 human colon carcinoma cells, 5 days incubation, CellTiter-Glo luminescence
Protocol: The CellTiter-Glo™ Luminescent Cell Viability Assay (Promega) is a homogeneous method of determining the number of viable cells in culture based on quantitation of the ATP present, which signals the presence of metabolically active cells.
HCT 116 cells (human colon carcinoma, ATCC-No. CCl-247) were cultivated in RPMI 1640 medium with GlutaMAX™ I (Invitrogen, Cat-No. 61870-010), 2,5% Fetal Calf Serum (FCS, Sigma Cat-No. F4135 (FBS)); 100 Units/ml penicillin/100 μg/ml streptomycin (=Pen/Strep from Invitrogen Cat. No. 15140). For the assay the cells were seeded in 384 well plates, 1000 cells per well, in the same medium. The next day the test compounds were added in various concentrations ranging from 30 μM to 0.0015 μM (10 concentrations, 1:3 diluted). After 5 days the CellTiter-Glo™ assay was done according to the instructions of the manufacturer (CellTiter-Glo™ Luminescent Cell Viability Assay, from Promega). In brief: the cell-plate was equilibrated to room temperature for approximately 30 minutes and than the CellTiter-Glo™ reagent was added. The contents were carefully mixed for 15 minutes to induce cell lysis. After 45 minutes the luminescent signal was measured in Victor 2, (scanning multiwell spectrophotometer, Wallac).
1st. Day: • Medium: RPMI 1640 with GlutaMAX™ I (Invitrogen, Cat-Nr. 61870), 5% FCS (Sigma Cat.-No. F4135), Pen/Strep (Invitrogen, Cat No. 15140). • HCT116 (ATCC-No. CCl-247): 1000 cells in 60 μl per well of 384 well plate (Greiner 781098, μClear-plate white) • After seeding incubate plates 24 h at 37° C., 5% CO2 2nd. Day: Induction (Treatment with Compounds, 10 Concentrations):
In order to achieve a final concentration of 30 μM as highest concentration 3.5 μl of 10 mM compound stock solution were added directly to 163 μl media. Then step e) of the dilution procedure described below, was followed.
In order to achieve the second highest to the lowest concentrations, a serial dilution with dilution steps of 1:3 was followed according to the procedure (a-e) as described here below: • a) for the second highest concentration add 10 μl of 10 mM stock solution of compound to 20 μl dimethylsulfoxide (DMSO) • b) dilute 8×1:3 (always 10 μl to 20 μl DMSO) in this DMSO dilution row (results in 9 wells with concentrations from 3333.3 μM to 0.51 μM) • c) dilute each concentration 1:47.6 (3.5 μl compound dilution to 163 μl media) • e) add 10 μl of every concentration to 60 μl media in the cell plate resulting in final concentration of DMSO: 0.3% in every well and resulting in 10 final concentration of compounds ranging from 30 μM to 0.0015 μM. • Each compound is tested in triplicate. • Incubate 120 h (5 days) at 37° C., 5% CO2
• Add 30 μl CellTiter-Glo™ Reagent (prepared from CellTiter-Glo™ Buffer and CellTiter-Glo™ Substrate (lyophilized) purchased from Promega) per well, • shake 15 minutes at room temperature • incubate further 45 minutes at room temperature without shaking
• Victor 2 scanning multiwell spectrophotometer (Wallac), Luminescence mode (0.5 sec/read, 477 nm) • Determine IC50 using a non-linear curve fit (XLfit software (ID Business Solution Ltd., Guilford, Surrey, UK))

[2] = biological target: T1, Aurora A kinase (Homo sapiens, UniProt O14965); test: IC50 determination for inhibitors of Aurora A (ELISA-type kinase assay, GST-Histone H3 substrate); type: biochemical; conditions: mutant Aurora A kinase, 30 μM ATP, 40 minutes, read-out: IC50 Aurora A kinase inhibition
T1 sequence (O14965 1-403 T288D): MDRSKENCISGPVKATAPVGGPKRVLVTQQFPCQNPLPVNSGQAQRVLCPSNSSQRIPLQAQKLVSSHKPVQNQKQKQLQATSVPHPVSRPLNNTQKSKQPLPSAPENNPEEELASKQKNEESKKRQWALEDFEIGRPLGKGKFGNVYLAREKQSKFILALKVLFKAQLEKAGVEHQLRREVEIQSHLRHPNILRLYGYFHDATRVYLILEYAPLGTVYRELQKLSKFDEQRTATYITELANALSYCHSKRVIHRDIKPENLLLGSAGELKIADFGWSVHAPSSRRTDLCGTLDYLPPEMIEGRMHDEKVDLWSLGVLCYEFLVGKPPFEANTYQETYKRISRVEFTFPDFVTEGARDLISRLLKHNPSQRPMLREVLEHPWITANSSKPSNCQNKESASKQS
Protocol: Aurora A is a serine threonine kinase involved in spindle assembly and chromosome segregation.
The assay is a typically ELISA-type assay where substrate (GST-Histone H3) is coupled to the assay-plate and is phosphorylated by the kinase. Phosphorylation is detected by a mouse anti-Phosphopeptid mAb and an HRP-labeled anti-mouse pAb. The assay is validated for IC50-determination.
Kinase activities were measured by Enzyme-Linked Immunosorbent Assay (ELISA): Maxisorp 384-well plates (Nunc) were coated with recombinant fusion protein comprising residues 1-15 of HistoneH3 fused to the N-terminus of Glutathione-S-Transferase. Plates were then blocked with a solution of 1 mg/mL I-block (Tropix cat# T2015—highly purified form of casein) in phosphate-buffered saline. Kinase reactions were carried out in the wells of the ELISA plate by combining an appropriate amount of mutant Aurora A kinase with test compound and 30 μM ATP. The reaction buffer was 10× Kinase Buffer (Cell Signaling cat #9802) supplemented with 1 μg/mL I-block. Reactions were stopped after 40 minutes by addition of 25 mM EDTA. After washing, substrate phosphorylation was detected by addition of anti-phospho-Histone H3 (Ser 10) 6G3 mAb (Cell Signaling cat #9706) and sheep anti-mouse pAb-HRP (Amersham cat# NA931V), followed by colorimetric development with TMB (3,3′,5,5′-tetramethylbenzidine from Kirkegaard & Perry Laboratories). After readout of the absorbance, IC50 values were calculated using a non-linear curve fit (XLfit software (ID Business Solution Ltd., Guilford, Surrey, UK)).

In the case of `CCN1C(=O)C(C)(C)c2cc3nc(-c4n[nH]c5ccc(-c6cccc(N(C)C)c6)cc45)[nH]c3cc21` [Example 29, 2-[5-(3-Dimethylamino-phenyl)-1H-indazol-3-yl]-5-ethyl-7,7-dimethyl-5,7-dihydro-3H-imidazo[4,5-f]indol-6-one], the IC50 [1] is reported as 25 to 1500 nM and the IC50 [2] is reported as 6 nM.
In the case of `CCN1C(=O)C(C)(C)c2cc3nc(-c4n[nH]c5cc(/C=C/c6ccc(F)cc6)ccc45)[nH]c3cc21` [Example 6, 5-Ethyl-2-{6-[(E)-2-(4-fluoro-phenyl)-vinyl]-1H-indazol-3-yl}-7,7-dimethyl-5,7-dihydro-3H-imidazo[4,5-f]indol-6-one], the IC50 [1] is reported as 25 to 1500 nM and the IC50 [2] is reported as 35 nM.
`CCN1C(=O)C(C)(C)c2cc3nc(-c4n[nH]c5cc(C#Cc6ccccc6)ccc45)[nH]c3cc21` [Example 38, 5-Ethyl-7,7-dimethyl-2-(6-phenylethynyl-1H-indazol-3-yl)-5,7-dihydro-3H-imidazo[4,5-f]indol-6-one] showed an IC50 [1] of 25 to 1500 nM and an IC50 [2] of 9 nM.
Compound `CCN1C(=O)C(C)(C)c2cc3nc(-c4n[nH]c5ccc(-c6nc[nH]n6)cc45)[nH]c3cc21` [Example 1, 5-Ethyl-7,7-dimethyl-2-[5-(1H-[1,2,4]triazol-3-yl)-1H-indazol-3-yl]-5,7-dihydro-3H-imidazo[4,5-f]indol-6-one] has an IC50 [1] of 25 to 1500 nM and an IC50 [2] of 2 nM.
Work on `CCN1C(=O)C(C)(C)c2cc3nc(-c4n[nH]c5cc(/C=C/C6CCCCC6)ccc45)[nH]c3cc21` [Example 19, 2-[6-((E)-2-Cyclohexyl-vinyl)-1H-indazol-3-yl]-5-ethyl-7,7-dimethyl-5,7-dihydro-3H-imidazo[4,5-f]indol-6-one] yielded an IC50 [1] of 25 to 1500 nM and an IC50 [2] of 58 nM.
With `CCN1C(=O)C(C)(C)c2cc3nc(-c4n[nH]c5cc(-c6ccsc6)ccc45)[nH]c3cc21` [Example 4, 5-Ethyl-7,7-dimethyl-2-(6-thiophen-3-yl-1H-indazol-3-yl)-5,7-dihydro-3H-imidazo[4,5-f]indol-6-one] the IC50 [1] was 25 to 1500 nM and the IC50 [2] was 22 nM.
For `CCN1C(=O)C(C)(C)c2cc3nc(-c4n[nH]c5cc(/C=C/c6ccc(C(F)(F)F)cc6)ccc45)[nH]c3cc21` [Example 11, 5-Ethyl-7,7-dimethyl-2-{6-[(E)-2-(4-trifluoromethyl-phenyl)-vinyl]-1H-indazol-3-yl}-5,7-dihydro-3H-imidazo[4,5-f]indol-6-one], the IC50 [2] was 19 nM.
